Values joined by “and” are separate entries in the source; they are usually repeats but may differ in a detail not shown here. Identical values can stand only once.
Biological target: T1, SNAT2 (Homo sapiens, UniProt Q96QD8)
T1 sequence (Q96QD8 1-506): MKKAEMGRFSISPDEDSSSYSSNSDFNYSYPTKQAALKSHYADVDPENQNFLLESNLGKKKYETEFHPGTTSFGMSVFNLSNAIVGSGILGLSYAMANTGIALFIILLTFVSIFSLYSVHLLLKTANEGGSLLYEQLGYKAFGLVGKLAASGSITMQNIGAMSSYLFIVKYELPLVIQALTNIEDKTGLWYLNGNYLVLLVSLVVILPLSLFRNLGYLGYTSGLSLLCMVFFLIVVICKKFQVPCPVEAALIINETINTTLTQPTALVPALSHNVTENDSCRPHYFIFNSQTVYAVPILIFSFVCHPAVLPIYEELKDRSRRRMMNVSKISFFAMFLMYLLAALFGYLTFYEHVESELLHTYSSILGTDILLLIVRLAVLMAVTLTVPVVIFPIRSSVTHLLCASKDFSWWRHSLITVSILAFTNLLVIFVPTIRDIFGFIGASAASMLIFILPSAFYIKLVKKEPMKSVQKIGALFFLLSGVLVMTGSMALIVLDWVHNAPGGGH
Assay: FMP assay with betaine in amino acid depleted SKOV3 cells
Assay type: cell-based
Parameters: SKOV3 cells were pre-incubated in starvation medium for 15 h to induce SNAT2 expression; endogenous in cells; host or cells: SKOV3 ovarian cancer cells, amino acid depleted for 15 h
Method: The FLIPR Membrane Potential Blue Explorer Kit (Molecular Devices) was used to characterise inhibitors and to optimise a high-throughput compound screen. Cells were seeded at approximately 60,000 cells/well on a 96-well plate and allowed to attach and grow overnight in a cell incubator. The next day, the cells were washed once with mHBSS and incubated in a starvation medium (composed of mHBSS with 1% dialysed heat-inactivated FBS, 23 mM NaHCO3, 10 U/ml penicillin and 10 μg/ml streptomycin) for 24 h. Cells were then washed once with mHBSS and incubated with 50 µl of the mHBSS-resuspended FMP assay dye and 50 µl of mHBSS (with or without inhibitors) and incubated at room temperature for 30 min. The plate was then placed in an EnSpire Multimode plate reader (PerkinElmer) and four sequential measurements of fluorescence were recorded as a baseline reference. […] The excitation wavelength was set to 530 nm and the emission was detected at 565 nm. The Δ fluorescent signal reported in the figures was taken 30 s after substrate addition. After the assay was complete, the liquid content of the plate was carefully removed, and the cell monolayer inspected to ensure it remained intact throughout the course of the assay.

Km (SKOV3, 15 h starvation): 4.3 ± 0.4 mM
FMP fluorescence trace (Figure 4E) (concentration 0.03, time 45): 36191 and 39302 and 41186
FMP fluorescence trace (Figure 4E) (concentration 0.03, time 60): 36028 and 39595 and 40874
FMP fluorescence trace (Figure 4E) (concentration 0.03, time 75): 36276 and 39484 and 40680
FMP fluorescence trace (Figure 4E) (concentration 0.03, time 90): 36701 and 39571 and 40731
FMP fluorescence trace (Figure 4E) (concentration 0.03, time 105): 36288
FMP fluorescence trace (Figure 4E) (concentration 0.1, time 45): 39809 and 43033 and 44738
FMP fluorescence trace (Figure 4E) (concentration 0.1, time 60): 40091 and 43354 and 44846
FMP fluorescence trace (Figure 4E) (concentration 0.1, time 75): 40044 and 43600 and 44897
FMP fluorescence trace (Figure 4E) (concentration 0.1, time 90): 40287 and 43518 and 45010
FMP fluorescence trace (Figure 4E) (concentration 0.3, time 45): 39193 and 54954 and 48855
FMP fluorescence trace (Figure 4E) (concentration 0.3, time 60): 39317 and 55361 and 48804
FMP fluorescence trace (Figure 4E) (concentration 0.3, time 75): 39855 and 55442 and 48718
FMP fluorescence trace (Figure 4E) (concentration 0.3, time 90): 39384 and 55296 and 48820
FMP fluorescence trace (Figure 4E) (concentration 0.3, time 105): 39825 and 55517 and 48933
FMP fluorescence trace (Figure 4E) (concentration 1, time 45): 52793 and 67651 and 60777
FMP fluorescence trace (Figure 4E) (concentration 1, time 60): 53223 and 68372 and 61573
FMP fluorescence trace (Figure 4E) (concentration 1, time 75): 53467 and 68816 and 61749
FMP fluorescence trace (Figure 4E) (concentration 1, time 90): 53620 and 69372 and 62182
FMP fluorescence trace (Figure 4E) (concentration 1, time 105): 53487 and 69294 and 62105
FMP fluorescence trace (Figure 4E) (concentration 3, time 45): 69502 and 81716 and 75888
FMP fluorescence trace (Figure 4E) (concentration 3, time 60): 70408 and 83092 and 76997
FMP fluorescence trace (Figure 4E) (concentration 3, time 75): 71034 and 84131 and 77980
FMP fluorescence trace (Figure 4E) (concentration 3, time 90): 71787 and 84660 and 78697
FMP fluorescence trace (Figure 4E) (concentration 3, time 105): 71870 and 85004 and 78476
FMP fluorescence trace (Figure 4E) (concentration 10, time 45): 84051 and 99553 and 93004
FMP fluorescence trace (Figure 4E) (concentration 10, time 60): 86308 and 101988 and 95225
FMP fluorescence trace (Figure 4E) (concentration 10, time 75): 87856 and 103721 and 96631
FMP fluorescence trace (Figure 4E) (concentration 10, time 90): 88823 and 104893 and 97518
FMP fluorescence trace (Figure 4E) (concentration 10, time 105): 89188 and 106421 and 98442
FMP fluorescence trace (Figure 4E) (concentration 30, time 45): 86227 and 101310 and 96479
FMP fluorescence trace (Figure 4E) (concentration 30, time 60): 89361 and 105122 and 98804
FMP fluorescence trace (Figure 4E) (concentration 30, time 75): 91535 and 107806 and 101327
FMP fluorescence trace (Figure 4E) (concentration 30, time 90): 92748 and 109815 and 102783
FMP fluorescence trace (Figure 4E) (concentration 30, time 105): 93673 and 111181 and 103799
Structure (SMILES): C[N+](C)(C)CC(=O)O [Betaine, betaine]
